Test system: A375
Assay: pERK immunofluorescence, normalised; higher = more ERK phosphorylation
Conditions: vemurafenib 0 µM, drug treatment time 24 h
Experimental: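 A375 or A375 CRISPRa-EGFR (A375_Cra_F7_5/13) cells were adapted for 24 h to a cobimetinib dose series, with or without 1 uM vemurafenib, then stimulated with EGF (100 ng/mL) or mock medium and fixed at the indicated times. pERK was measured by immunofluorescence as the population mean normalised to baseline, with the SD of technical replicates (n=2).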

O=C(c1ccc(F)c(F)c1Nc1ccc(I)cc1F)N1CC(O)([C@@H]2CCCCN2)C1 [cobimetinib]
pERK immunofluorescence
Conditions	cobimetinib 31.62 pM	cobimetinib 0.0001 µM	cobimetinib 0.000316228 µM	cobimetinib 0.001 µM	cobimetinib 0.003162278 µM	cobimetinib 0.01 µM	cobimetinib 0.031622777 µM	cobimetinib 0.1 µM	cobimetinib 0.316227766 µM	cobimetinib 1 µM
EGF 0 ng/mL, time after EGF/mock 0.083 h	0.965	0.9579	0.873	0.658	0.313	0.16	0.1379	0.13	0.1264	0.1263
EGF 0 ng/mL, time after EGF/mock 0.5 h	0.9998	0.958	0.8944	0.679	0.306	0.157	0.135	0.1283	0.1262	0.126
EGF 0 ng/mL, time after EGF/mock 2 h	0.961	0.958	0.904	0.746	0.358	0.152	0.1311	0.1245	0.1235	0.1235
EGF 0 ng/mL, time after EGF/mock 8 h	0.97332	0.972	0.93	0.7507	0.312	0.132	0.1135	0.113	0.105	0.1046
EGF 0 ng/mL, time after EGF/mock 24 h	0.962	0.985	0.952	0.817	0.399	0.1129	0.10189	0.103	0.1021	0.0982
EGF 100 ng/mL, time after EGF/mock 0.083 h	1.19	1.2	1.133	1.18	1.39	1.4	1.37	1.04	0.268	0.134
EGF 100 ng/mL, time after EGF/mock 0.5 h	1.03	1.03	0.9538	0.887	0.782	0.594	0.411	0.333	0.336	0.144
EGF 100 ng/mL, time after EGF/mock 2 h	0.959	0.965	0.891	0.782	0.4241	0.176	0.136	0.1271	0.1234	0.12285
EGF 100 ng/mL, time after EGF/mock 8 h	0.946	0.9729	0.909	0.786	0.487	0.168	0.124	0.114	0.1065	0.1039
EGF 100 ng/mL, time after EGF/mock 24 h	0.8607	0.897	0.854	0.773	0.518	0.128	0.1071	0.1048	0.104	0.0978
